# Columns and labels:
# [1] = test system: Caki-1 (kidney clear cell carcinoma); assay: MTT cell viability assay, Caki-1; type: cell-based; details: Homo sapiens, CAKI-1, 72 h; read-out: GI50, M (geometric mean, N = 3)
# Description: Cell lines and cell culture: The following human cancer cell lines have been used in this example (the collection code and the tissue of origin are shown in brackets): • RXF 393 (NCI) (renal carcinoma) • Caki-1 (ATCC HTB-46) (kidney clear cell carcinoma)
# Cell lines were obtained from the American Type Culture Collection (ATCC) or the National Cancer Institute (NCI). Cells were maintained in the appropriate culture medium, namely: • RPMI for RXF 393 • McCoy's 5A for Caki-1
# All media were supplemented with 10% FBS, 2 mM L-Glutamine and 100 units/mL of penicillin-streptomycin.
# Cell viability assay: To assess the antiproliferative activity of the compounds a colorimetric assay based on 3-(4,5-Dimethylthiazol-2-yl)-2,5-diphenyltetrazolium bromide (MTT) reduction was used. […] Culture medium was then removed and 100 μL of neat DMSO added to each well to dissolve the formazan product into a coloured solution whose absorbance at 540 nm was finally measured in a PolarStar Omega microplate multilabel reader (BMG Labtech, Ortenberg, Germany). […]
# GI50 is finally used as reference value. […] To define a significant (ca. 70%) confidence interval for the geometric mean, its value must be multiplied and divided by the corresponding geometric standard deviation (GSD) which was also calculated. […]
# WM-266-4 (Melanoma) = assay: MTT cell viability assay, WM-266-4; type: cell-based; details: Homo sapiens
# Description: Cell viability assay: To assess the antiproliferative activity of the compounds a colorimetric assay based on 3-(4,5-Dimethylthiazol-2-yl)-2,5-diphenyltetrazolium bromide (MTT) reduction was used. […] An appropriate number of cells, to reach a final cell density in the assay ranging from 5,000 to 15,000 cells per well depending on the cell line, were seeded in 96-well plates and allowed to stand in culture medium for 24 h at 37° C. under 5% CO2 and 98% humidity. Then, compounds or DMSO in culture medium were added to reach a final volume of […] and the intended compound concentration in a range covering 10 serial 2/5 dilutions starting from […] (10 μg/mL for doxorubicin) in 1% (v/v) DMSO. At this point a set of “time zero control plates” treated with 1% (v/v) DMSO were processed with MTT as described below. The rest of the plates were incubated during 72 h under the aforementioned environmental conditions. […] Culture medium was then removed and 100 μL of neat DMSO added to each well to dissolve the formazan product into a coloured solution whose absorbance at 540 nm was finally measured in a PolarStar Omega microplate multilabel reader (BMG Labtech, Ortenberg, Germany). […]
# GI50 values were determined as described in Example 1, but using the following human cancer cell line: • WM-266-4 (ATCC@ CRL-1676) (Melanoma) […]
# [2] = test system: MRI-H-121 xenografts (human renal carcinoma tumor line); assay: MRI-H-121 mouse xenograft study, antitumor activity; type: in vivo, mice; details: 1.25 mg/kg i.v. days 0, 7 and 14
# Description: Compounds: Vials of off-white lyophilized PM14 cake were stored at −20° C. The cake was reconstituted with 2 ml of water for injection (Sigma-Aldrich, Co) to a concentration of 0.5 mg/ml. Further dilutions were made with a 5% glucose solution for injection/USP (Baxter, Inc.). A clear PM14 solution was obtained.
# Animals: Female athymic nu/nu mice between 4 to 6 weeks of age were purchased from Envigo (Barcelona, Spain).
# Tumor line: MRI-H-121 is a human renal carcinoma tumor line, originally obtained from the DCT Tumor Bank. Developed by Dr. A. E. Bogden, Mason Research Institute MA and maintained as a serial transplanted tumor line in athymic nude mice. Original tissue came from a patient at U. of Mass. Med. Center.
# Study groups: Briefly, 4 to 6 week-old female athymic nu/nu mice were subcutaneously implanted into their right flank with a MRI-H-121 tissue from serial transplanted donor mice. Tumors were removed from donor animals and were cut into fragments (3 mm^3). Tissue was debrided of membrane, hemorrhagic and necrotic areas, placed in Matrigel™ (Corning Incorporated Life Sciences) and subcutaneously implanted. Recipient mice were anesthetised by inhalation of isoflurane, a small incision into the skin of the back was made and one tumor fragment per mouse was transplanted with tweezers. The mice were monitored daily.
# Tumor bearing animals were randomly allocated into 2 groups (N=10/group): PM14 administered at 1.25 mg/kg and placebo. All treatments were intravenously administered once a week for 3 consecutive weeks (days 0, 7 and 14).
# Tumor measurements were determined using digital calipers (Fowler Sylvac, S235PAT). The formula to calculate volume for a prolate ellipsoid was used to estimate tumor volume (mm^3) from 2-dimensional tumor measurements:
# Where, a: length (longest diameter) and b: width (shortest diameter) in mm of a tumor.
# Tumor volume and animal body weights were measured 2-3 times per week starting from the first day of treatment.
# When tumors reached ca. 190 mm^3, tumor bearing animals were randomly allocated into the following experimental groups (N=10/group):
# Treatments were initiated on Day 0 and were intravenously administered once per week for 3 consecutive weeks (days 0, 7 and 14).
# Tumor volume data from groups following the 1st, 2nd, 3rd, 4th and 5th weeks were compared using a two tailed Mann Whitney U test. The data are presented as medians and interquartile range (IQR).
# Complete tumor regression (CR) was defined when tumor volume <63 mm^3 for 2 or more consecutive measurements. Survival statistical differences between groups were assessed by Kaplan Meier curves applying the log rank test.
smiles,measurement,setting,value
"COc1c(C)cc2c(c1O)[C@@H]1[C@@H]3[C@@H]4SC[C@]5(N[C@H](CO)Cc6c5[nH]c5ccccc65)C(=O)OC[C@@H](c5c6c(c(C)c(OC(C)=O)c54)OCO6)N3[C@@H](O)[C@H](C2)N1C [PM14, ECUBECTEDIN]",GI50,[1],0.611 nM
same,GI50,WM-266-4 (Melanoma),1.94 nM
same,Median survival time,[2],32.5 days
same,antitumor activity,[2],very strong antitumor activity
same,"TV, mm^3 median",[2]; Day 0,190.8 mm^3
same,"TV, mm^3 median","[2]; Day 7, 1.25 mg/kg",401.2 mm^3
same,"TV, mm^3 median","[2]; Day 14, 1.25 mg/kg",472.7 mm^3
same,"TV, mm^3 median","[2]; Day 21, 1.25 mg/kg",743.8 mm^3
same,"TV, mm^3 median","[2]; Day 28, 1.25 mg/kg",1392 mm^3
same,"TV, mm^3 median","[2]; Day 35, 1.25 mg/kg",2015 mm^3

# Source: patent publication US20240277705A1, “DOSAGE REGIMENS FOR ECUBECTEDIN” (PHARMA MAR S.A., priority 2021, published 2024)
